Literature values as cited in US8053446B2, “Cyanoguanidine compounds” (Leo Pharma A/S, priority 2004, dated 2011).

Key:
[1] = tested on: normal human endothelial cells
human tumour cells = details: nude mice transplanted with human tumour cells; also against tumour cells resistant to conventional anticancer drugs such as paclitaxel

In the case of `N#CNC(=Nc1ccncc1)NCCCCCCOc1ccc(Cl)cc1` [N-(6-(4-chlorophenoxy)hexyl)-N′-cyano-N″-(4-pyridyl)guanidine], the antiproliferative activity [1] is listed as “considerably less antiproliferative activity” and the antitumour activity (human tumour cells) is listed as “substantial antitumour activity”.
